Laboratory results from patent US20230233569A1 (Revolution Medicines, Inc., priority 2020, published 2023).
Read-outs that look alike come from different tables or passages of the source.

Assays:
[1] = test system: AsPC-1 (K-Ras G12D); assay: Potency assay: pERK; assay type: cell-based; settings: Homo sapiens
[2] = test system: AsPC-1 (K-Ras G12D); assay: CellTiter-Glo cell viability assay; assay type: cell-based; settings: Homo sapiens, ASPC1, 120 h
Protocol: Determination of Cell Viability in RAS Mutant Cancer Cell Lines
Protocol: CellTiter-Glo® Cell Viability Assay
Note—The following protocol describes a procedure for monitoring cell viability of K-Ras mutant cancer cell lines in response to a compound of the invention. Other RAS isoforms may be employed, though the number of cells to be seeded will vary based on cell line used.
Test compounds (132.5 nL) were directly dispensed into the assay plates containing cells. […] On day 5, assay plates and their contents were equilibrated to room temperature for approximately 30 minutes. […] Luminescence was measured using the PerkinElmer Enspire. Data were normalized by the following: (Sample signal/Avg. DMSO)*100. The data were fit using a four-parameter logistic fit.

[3] = target: KRAS G12D (Homo sapiens, UniProt P01116+P62937, G12D); assay: Ras-Raf disruption / FRET / MOA assay (BRAF RBD); assay type: biochemical; settings: KRAS G12D FRET data IC50, Ras-Raf disruption, with Cyclophilin A
Method in brief: (§1)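 Compound-induced Ras–Cyclophilin A ternary complex disrupting BRAF RBD binding, read as IC50 from reduced TR-FRET ratio relative to DMSO. Final: Ras-GMPPNP 12.5 nM, BRAF RBD 50 nM, Cyclophilin A 25 μM, top compound 30 μM (3-fold, 10 points); 3 h at 25 °C, then 1.5 h with detection antibodies.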

[4] = target: KRAS G12S (Homo sapiens, UniProt P01116+P62937, G12S); assay: Ras-Raf disruption / FRET / MOA assay (BRAF RBD); assay type: biochemical; settings: KRAS G12S FRET data IC50, Ras-Raf disruption, with Cyclophilin A
Method in brief: as §1

[5] = target: KRAS G12V (Homo sapiens, UniProt P01116+P62937, G12V); assay: Ras-Raf disruption / FRET / MOA assay (BRAF RBD); assay type: biochemical; settings: KRAS G12V FRET data IC50, Ras-Raf disruption, with Cyclophilin A
Method in brief: as §1

[6] = target: KRAS G13C (Homo sapiens, UniProt P01116+P62937, G13C); assay: Ras-Raf disruption / FRET / MOA assay (BRAF RBD); assay type: biochemical; settings: KRAS G13C FRET data IC50, Ras-Raf disruption, with Cyclophilin A
Method in brief: as §1

[7] = target: KRAS G13D (Homo sapiens, UniProt P01116+P62937, G13D); assay: Ras-Raf disruption / FRET / MOA assay (BRAF RBD); assay type: biochemical; settings: KRAS G13D FRET data IC50, Ras-Raf disruption, with Cyclophilin A
Method in brief: as §1

[8] = target: KRAS Q61H (Homo sapiens, UniProt P01116+P62937, Q61H); assay: Ras-Raf disruption / FRET / MOA assay (BRAF RBD); assay type: biochemical
Method in brief: as §1

[9] = target: KRAS WT (Homo sapiens, UniProt P01116+P62937); assay: Ras-Raf disruption / FRET / MOA assay (BRAF RBD); assay type: biochemical; settings: KRAS WT FRET data IC50, Ras-Raf disruption, with Cyclophilin A
Method in brief: as §1

[10] = target: NRAS G12C (Homo sapiens, UniProt P01111+P62937, G12C); assay: Ras-Raf disruption / FRET / MOA assay (BRAF RBD); assay type: biochemical; settings: NRAS G12C FRET data IC50, NRAS G12C
Method in brief: as §1

[11] = target: NRAS Q61K (Homo sapiens, UniProt P01111+P62937, Q61K); assay: Ras-Raf disruption / FRET / MOA assay (BRAF RBD); assay type: biochemical
Method in brief: as §1

[12] = target: NRAS Q61R (Homo sapiens, UniProt P01111+P62937, Q61R); assay: Ras-Raf disruption / FRET / MOA assay (BRAF RBD); assay type: biochemical
Method in brief: as §1

[13] = target: NRAS WT (Homo sapiens, UniProt P01111+P62937); assay: Ras-Raf disruption / FRET / MOA assay (BRAF RBD); assay type: biochemical
Method in brief: as §1

[14] = target: KRAS G12C (Homo sapiens, UniProt P01116+P62937, G12C); assay: Ras-Raf disruption / FRET / MOA assay (BRAF RBD); assay type: biochemical; settings: KRAS G12C FRET data IC50, Ras-Raf disruption, with Cyclophilin A
Method in brief: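 TR-FRET read-out after 1.5 h with anti-His Eu-W1024 (10 nM) and anti-GST APC (50 nM), following 3 h at 25 °C of compound (top 30 μM, 3-fold, 10 points) with 25 μM Cyclophilin A, 12.5 nM GMPPNP-loaded K-Ras G12C and 50 nM BRAF RBD; IC50 reported.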

[15] = read-out: AsPC-1 Cell Viability assay data IC50, K-Ras G12D, 5-day treatment

Sequence of NRAS WT (P01111 whole entry): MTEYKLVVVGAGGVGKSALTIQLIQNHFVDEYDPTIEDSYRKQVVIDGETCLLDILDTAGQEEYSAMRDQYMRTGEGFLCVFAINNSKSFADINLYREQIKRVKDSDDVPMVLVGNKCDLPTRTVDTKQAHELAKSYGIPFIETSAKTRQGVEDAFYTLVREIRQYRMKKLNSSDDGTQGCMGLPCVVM
Sequence of NRAS WT (P62937 whole entry): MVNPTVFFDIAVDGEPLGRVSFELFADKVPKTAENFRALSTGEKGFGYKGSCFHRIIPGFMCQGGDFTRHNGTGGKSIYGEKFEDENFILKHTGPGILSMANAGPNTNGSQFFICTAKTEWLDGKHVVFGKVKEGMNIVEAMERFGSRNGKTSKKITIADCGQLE
Sequence of NRAS Q61K (P01111 whole entry Q61K): as the sequence (P01111 whole entry) above, with Q61K counted along it
Sequence of NRAS Q61K (P62937 whole entry): as the sequence (P62937 whole entry) above
Sequence of KRAS Q61H (P01116 1-169 isoform P01116-2 Q61H limits assumed): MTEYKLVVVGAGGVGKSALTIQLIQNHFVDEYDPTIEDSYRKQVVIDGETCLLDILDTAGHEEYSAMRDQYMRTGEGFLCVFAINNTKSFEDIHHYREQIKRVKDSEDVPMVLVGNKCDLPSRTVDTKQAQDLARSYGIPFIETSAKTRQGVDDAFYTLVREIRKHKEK
Sequence of KRAS Q61H (P62937 whole entry): as the sequence (P62937 whole entry) above
Sequence of KRAS G12V (P01116 1-169 isoform P01116-2 G12V limits assumed): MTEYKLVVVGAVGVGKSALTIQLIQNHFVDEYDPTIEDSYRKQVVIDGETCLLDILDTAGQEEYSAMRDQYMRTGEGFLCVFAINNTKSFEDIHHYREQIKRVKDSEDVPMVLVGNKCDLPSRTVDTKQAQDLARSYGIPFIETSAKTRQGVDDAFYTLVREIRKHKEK
Sequence of KRAS G12V (P62937 whole entry): as the sequence (P62937 whole entry) above
Sequence of KRAS G12S (P01116 1-169 isoform P01116-2 G12S limits assumed): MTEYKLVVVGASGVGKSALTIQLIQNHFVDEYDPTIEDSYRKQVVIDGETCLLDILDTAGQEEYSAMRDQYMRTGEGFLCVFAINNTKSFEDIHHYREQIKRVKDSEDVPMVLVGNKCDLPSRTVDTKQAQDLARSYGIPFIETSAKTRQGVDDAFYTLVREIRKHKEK
Sequence of KRAS G12S (P62937 whole entry): as the sequence (P62937 whole entry) above
Sequence of NRAS Q61R (P01111 whole entry Q61R): as the sequence (P01111 whole entry) above, with Q61R counted along it
Sequence of NRAS Q61R (P62937 whole entry): as the sequence (P62937 whole entry) above
Sequence of NRAS G12C (P01111 whole entry G12C): as the sequence (P01111 whole entry) above, with G12C counted along it
Sequence of NRAS G12C (P62937 whole entry): as the sequence (P62937 whole entry) above
Sequence of KRAS WT (P01116 1-169 isoform P01116-2 limits assumed): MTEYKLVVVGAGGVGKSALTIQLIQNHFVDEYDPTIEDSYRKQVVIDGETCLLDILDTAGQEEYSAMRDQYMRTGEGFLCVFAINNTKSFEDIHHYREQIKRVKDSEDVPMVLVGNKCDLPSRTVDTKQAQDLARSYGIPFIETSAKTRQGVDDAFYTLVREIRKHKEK
Sequence of KRAS WT (P62937 whole entry): as the sequence (P62937 whole entry) above
Sequence of KRAS G12C (P01116 1-169 isoform P01116-2 G12C limits assumed): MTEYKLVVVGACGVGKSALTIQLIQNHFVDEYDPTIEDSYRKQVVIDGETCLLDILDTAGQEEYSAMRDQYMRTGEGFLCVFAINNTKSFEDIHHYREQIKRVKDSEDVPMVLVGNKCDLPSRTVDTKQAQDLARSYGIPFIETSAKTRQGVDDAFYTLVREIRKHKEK
Sequence of KRAS G12C (P62937 whole entry): as the sequence (P62937 whole entry) above
Sequence of KRAS G12D (P01116 1-169 isoform P01116-2 G12D limits assumed): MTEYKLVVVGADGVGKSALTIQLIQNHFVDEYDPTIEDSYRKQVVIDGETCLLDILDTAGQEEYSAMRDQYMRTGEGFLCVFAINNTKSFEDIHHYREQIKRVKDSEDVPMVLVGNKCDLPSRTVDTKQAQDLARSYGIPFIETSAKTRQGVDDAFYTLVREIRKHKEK
Sequence of KRAS G12D (P62937 whole entry): as the sequence (P62937 whole entry) above
Sequence of KRAS G13D (P01116 1-169 isoform P01116-2 G13D limits assumed): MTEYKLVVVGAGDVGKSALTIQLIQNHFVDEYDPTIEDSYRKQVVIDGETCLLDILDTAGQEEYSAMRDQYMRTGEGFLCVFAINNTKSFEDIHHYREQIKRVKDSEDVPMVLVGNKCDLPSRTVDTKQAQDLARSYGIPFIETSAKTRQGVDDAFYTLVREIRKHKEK
Sequence of KRAS G13D (P62937 whole entry): as the sequence (P62937 whole entry) above
Sequence of KRAS G13C (P01116 1-169 isoform P01116-2 G13C limits assumed): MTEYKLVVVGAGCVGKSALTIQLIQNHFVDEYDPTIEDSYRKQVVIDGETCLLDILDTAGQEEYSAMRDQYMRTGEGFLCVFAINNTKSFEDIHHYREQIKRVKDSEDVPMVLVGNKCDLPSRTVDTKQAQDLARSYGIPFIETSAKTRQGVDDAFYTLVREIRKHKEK
Sequence of KRAS G13C (P62937 whole entry): as the sequence (P62937 whole entry) above

SMILES | EC50 ([1]; ASPC1, read-out: pERK EC50) | IC50 [2, 15] | IC50 [3] | IC50 [4] | IC50 [5] | IC50 [6] | IC50 [7] | IC50 [8] | IC50 [9] | IC50 [10] | IC50 [11] | IC50 [12] | IC50 [13] | IC50 [14] | EC50 ([1]; ASPC1, AsPC-1 KRAS G12D, read-out: pERK EC50) | IC50 ([2]; K-Ras G12D, 5-day treatment, read-out: AsPC-1 Cell Viability assay data IC50)
CCn1c(-c2cccnc2[C@H](C)OC)c2c3cc(ccc31)-c1cc(O)cc(c1)C[C@H](NC(=O)[C@H](C(C)C)N(C)C(=O)CN(C)C(=O)[C@@H]1CN1CCCN1CCCC1=O)C(=O)N1CCC[C@H](N1)C(=O)OCC(C)(C)C2 (stereo partly shown) [Example 269] | < 5000 nM | 1000 to 10000 nM | 10 to 100 nM | 10 to 100 nM | 10 to 100 nM | 10 to 100 nM | 100 to 1000 nM | 10 to 100 nM | 10 to 100 nM | < 10 nM | 100 to 1000 nM | 100 to 1000 nM | 10 to 100 nM | < 10 nM | – | –
CCn1c(-c2cccnc2[C@H](C)OC)c2c3cc(ccc31)-c1cc(O)cc(c1)C[C@H](NC(=O)[C@H](C(C)C)N(C)C(=O)CN(C)C(=O)[C@H]1N[C@@H]1C1COC1)C(=O)N1CCC[C@H](N1)C(=O)OCC(C)(C)C2 [Example 284] | < 5000 nM | 1000 to 10000 nM | 10 to 100 nM | 10 to 100 nM | 10 to 100 nM | < 10 nM | 10 to 100 nM | 10 to 100 nM | 10 to 100 nM | < 10 nM | 100 to 1000 nM | 100 to 1000 nM | 10 to 100 nM | 10 to 100 nM | – | –
CCn1c(-c2cccnc2[C@H](C)OC)c2c3cc(ccc31)-c1cc(O)cc(c1)C[C@H](NC(=O)[C@H](C(C)C)N(C)C(=O)[C@H]1CCCN1C(=O)[C@@H]1CN1)C(=O)N1CCC[C@H](N1)C(=O)OCC(C)(C)C2 [Example 151] | < 5000 nM | 1000 to 10000 nM | 100 to 1000 nM | 100 to 1000 nM | 10 to 100 nM | 100 to 1000 nM | 100 to 1000 nM | – | 100 to 1000 nM | < 10 nM | – | – | – | < 10 nM | – | –
CCn1c(-c2cccnc2[C@H](C)OC)c2c3cc(ccc31)-c1cc(O)cc(c1)C[C@H](NC(=O)[C@H](C(C)C)N(C)C(=O)[C@H]1CCCN1C(=O)[C@H]1CN1)C(=O)N1CCC[C@H](N1)C(=O)OCC(C)(C)C2 [Example 152] | < 5000 nM | 1000 to 10000 nM | 100 to 1000 nM | 100 to 1000 nM | 100 to 1000 nM | 10 to 100 nM | 100 to 1000 nM | – | 100 to 1000 nM | 10 to 100 nM | – | – | – | 10 to 100 nM | – | –
CCn1c(-c2cccnc2[C@H](C)OC)c2c3cc(ccc31)-c1cc(O)cc(c1)C[C@H](NC(=O)[C@H](C(C)C)N(C)C(=O)CN(C)C(=O)[C@H]1CN1CCCN1CCCC1=O)C(=O)N1CCC[C@H](N1)C(=O)OCC(C)(C)C2 (stereo partly drawn) [Example 268, (2R)—N-(2-(((2S)-1-(((6^3S,4S)-1^1-ethyl-2^5-hydroxy-1^2-(2-((S)-1-methoxyethyl)pyridin-3-yl)-10,10-dimethyl-5,7-dioxo-6^1,6^2,6^3,6^4,6^5,6^6-hexahydro-1^1H-8-oxa-1(5,3)-indola-6(1,3)-pyridazina-2(1,3)-benzenacycloundecaphane-4-yl)amino)-3-methyl-1-oxobutan-2-yl)(methyl)amino)-2-oxoethyl)-N-methyl-1-(3-(2-oxopyrrolidin-1-yl)propyl)aziridine-2-carboxamide] | < 5000 nM | 1000 to 10000 nM | 100 to 1000 nM | 10 to 100 nM | 10 to 100 nM | 10 to 100 nM | 100 to 1000 nM | 10 to 100 nM | 10 to 100 nM | < 10 nM | 100 to 1000 nM | 100 to 1000 nM | 10 to 100 nM | < 10 nM | – | –
CCn1c(-c2cccnc2[C@H](C)OC)c2c3cc(ccc31)-c1cc(O)cc(c1)C[C@H](NC(=O)[C@H](C(C)C)N(C)C(=O)[C@H]1CC[C@@H](C)N1C(=O)[C@H]1CN1)C(=O)N1CCC[C@H](N1)C(=O)OCC(C)(C)C2 [Example 154] | < 5000 nM | 1000 to 10000 nM | 1000 to 10000 nM | 100 to 1000 nM | 100 to 1000 nM | 100 to 1000 nM | 1000 to 10000 nM | – | 100 to 1000 nM | 10 to 100 nM | – | – | – | 10 to 100 nM | – | –
CCn1c(-c2cccnc2[C@H](C)OC)c2c3cc(ccc31)-c1cc(O)cc(c1)C[C@H](NC(=O)[C@H](C(C)C)N(C)C(=O)CN(C)C(=O)[C@@H]1CN1CC1COC1)C(=O)N1CCC[C@H](N1)C(=O)OCC(C)(C)C2 (stereo partly shown) [Example 278] | < 5000 nM | 1000 to 10000 nM | 10 to 100 nM | 10 to 100 nM | 10 to 100 nM | 10 to 100 nM | 100 to 1000 nM | 10 to 100 nM | 10 to 100 nM | < 10 nM | 100 to 1000 nM | 100 to 1000 nM | 10 to 100 nM | 10 to 100 nM | – | –
CCn1c(-c2cccnc2[C@H](C)OC)c2c3cc(ccc31)-c1cc(O)cc(c1)C[C@H](NC(=O)[C@H](C(C)C)N(C)C(=O)[C@]13C[C@H]1CCN3C(=O)[C@@H]1CN1)C(=O)N1CCC[C@H](N1)C(=O)OCC(C)(C)C2 [Example 166] | – | – | 100 to 1000 nM | 100 to 1000 nM | 100 to 1000 nM | 100 to 1000 nM | 100 to 1000 nM | 10 to 100 nM | 100 to 1000 nM | 100 to 1000 nM | 1000 to 10000 nM | 1000 to 10000 nM | 100 to 1000 nM | 100 to 1000 nM | < 5000 nM | 1000 to 10000 nM
CCn1c(-c2cccnc2[C@H](C)OC)c2c3cc(ccc31)-c1cc(O)cc(c1)C[C@H](NC(=O)[C@H](C(C)C)N(C)C(=O)[C@@H](C)N(C)C(=O)[C@H]1CN1)C(=O)N1CCC[C@H](N1)C(=O)OCC(C)(C)C2 [Example 114] | < 5000 nM | 1000 to 10000 nM | 1000 to 10000 nM | 1000 to 10000 nM | 1000 to 10000 nM | 100 to 1000 nM | 1000 to 10000 nM | – | 1000 to 10000 nM | 10 to 100 nM | – | – | – | 10 to 100 nM | – | –
CCn1c(-c2cccnc2[C@H](C)OC)c2c3cc(ccc31)-c1cc(O)cc(c1)C[C@H](NC(=O)[C@H](C(C)C)N(C)C(=O)CNC(=O)[C@@H]1CN1)C(=O)N1CCC[C@H](N1)C(=O)OCC(C)(C)C2 [Example 147] | < 5000 nM | 1000 to 10000 nM | 100 to 1000 nM | 10 to 100 nM | 10 to 100 nM | 10 to 100 nM | 100 to 1000 nM | – | 10 to 100 nM | 10 to 100 nM | – | – | – | 10 to 100 nM | – | –
CCn1c(-c2cccnc2[C@H](C)OC)c2c3cc(ccc31)-c1cc(O)cc(c1)C[C@H](NC(=O)[C@H](C(C)C)N(C)C(=O)CN(C)C(=O)[C@@H]1CN1CCO)C(=O)N1CCC[C@H](N1)C(=O)OCC(C)(C)C2 (stereo partly shown) [Example 162] | < 5000 nM | 1000 to 10000 nM | 100 to 1000 nM | 10 to 100 nM | 10 to 100 nM | 10 to 100 nM | 10 to 100 nM | – | 10 to 100 nM | < 10 nM | – | – | – | < 10 nM | – | –
